What was measured:
erythema = experiment: Animal test: severity of UV-induced erythema on rat back; type: in vivo, female Spraguex-Dawley rats; parameters: key: -: No erythema; ±: Very slight erythema; +: Slight erythema; ++: Medium erythema; +++: Severe erythema; conditions: Test zone, 1% suspension
From the text: (§1) Test Method Ten heads of female Spraguex-Dawley rats of 4-week age were used for the test. The back of each rat was divided into two zones along its center line; one (test zone) was coated with a 1% suspension of kojic acid in a 1% aqueous solution of carboxymethylcellulose, and the other (control zone) was coated with a 1% aqueous solution of carboxymethylcellulose. The coated solution was washed off with hot water one hour later, and each zone was then irradiated with ultraviolet rays for 20 minutes using four UV tubes (Toshiba, Model 20S;E30) placed 62 cm away from the back of each rat. This operation was performed three times a week (on Monday, Wednesday and Friday) and continued over a period of six months. The drug solution and control solution were applied every day (even on days when UV irradiation was omitted). After that, the coating operation alone was continued for an additional six months. Severity of erythema developed on each zone was observed immediately after the start of the test, and 2, 4, 6, 8, 10 and 12 months later.

elastosis = experiment: Animal test: UV-induced elastosis, elastic fiber histology (Hematoxylin-Eosin, Weigert and Orcein-Giemsa staining); type: in vivo, female Spraguex-Dawley rats; conditions: Test Zone, 1% suspension, total 10, end of the test (12 months)
From the text: as §1, with “At” for “Severity of erythema developed on each zone was observed immediately after”, “end” for “start”, “test, tissues were excised from the test” for “test,”, “control zones of each rat, paraffin sections of the skin, prepared from the tissues taken out, were subjected to a Hematoxylin-Eosin, Weigert” for “2, 4, 6, 8, 10”, “Orcein-Giemsa staining process, and the conditions of the elastic fiber were observed.” for “12 months later.”

mouse melanoma B16 cells = experiment: Color fading test of cultured pigment cells (mouse melanoma B16 cells); type: cell-based
Method: Besides the effects described above, the drugs of this invention also have powerful action to inhibit the formation of melanin. To be more specific, the drugs are very effective in inhibiting the formation of dopachrome (a red pigment). […] A color fading test of cultured pigment cells was carried out using kojic acid and kojic acid/β-cyclodextrin inclusion complex.
B: 20% solution of kojic acid/β-cyclodextrin inclusion complex
Mouse melanoma B16 cells (hereinafter referred to simply as "B16 cells") (each dish containing […] cells) were grown in Eagle's MEM medium (with 10% fetal calf serum added thereto), (a) in the presence of kojic acid at a concentration of 2.5 mM (Test zone A), (b) in the presence of kojic acid/β-cyclodextrin inclusion complex at a concentration of 2.5 mM (as kojic acid) (Test zone B), and (c) in the absence of any drug (Test zone C), at 37° C. for six days in an atmosphere consisting of 5% CO2 and 95% air. At the end of incubation, each culture was treated with trypsin, then centrifuged at 2000rpm for five minutes to prepare cell pellets, and the degree of blackness was visually compared.

rats = rats (both male and female), orally administered; cited from earlier work
mice = mice (both male and female), orally administered; cited from earlier work

O=c1cc(CO)occ1O [Kojic acid]
Severity of erythema (erythema; Coating Alone, month 8): - | Severity of erythema (erythema; Coating Alone, month 10): - | Severity of erythema (erythema; Coating Alone, month 12): - | Severity of erythema (erythema; Irradiation Period, month 0 (immediately after the start)): - | Severity of erythema (erythema; Irradiation Period, month 2): + | Severity of erythema (erythema; Irradiation Period, month 4): ++ | Severity of erythema (erythema; Irradiation Period, month 6): ++ | Number of rats with evaluation + (Slight elastosis) (elastosis): 3 | Number of rats with evaluation ++ (Medium elastosis) (elastosis): 1 | Number of rats with evaluation +++ (Severe elastosis) (elastosis): 0 | Number of rats with evaluation - (No elastosis) (elastosis): 3 | Number of rats with evaluation ± (Very slight elastosis) (elastosis): 3 | Color fading (degree of blackness of cell pellet, visual) (mouse melanoma B16 cells; 2.5 mM (as kojic acid), six days, 37° C., compared with Test zone C (control)): Considerable color fading | Inhibition of the formation of melanin (conclusion from color fading test) (mouse melanoma B16 cells; mouse melanoma B16 cells): outstanding effect | LD50 (rats): 2500 to 3500 mg/kg | LD50 (mice): 2500 to 3500 mg/kg
